Source: ChEMBL document CHEMBL1126373, “HIV and reverse transcriptase inhibition by tannins” (Bioorg Med Chem Lett, 1992)

Legend:
[1] = test system: Human immunodeficiency virus 1; test: Inhibition against HIV replication in cell culture at 20 ug/mL; assay type: functional; details: Human immunodeficiency virus 1
[2] = test system: Human immunodeficiency virus 1; test: Anti-HIV activity in cell culture assay expressed as EC50 values.; assay type: functional, organism-based; details: Human immunodeficiency virus 1
[3] = test system: Human immunodeficiency virus 1; test: Therapeutic index was determined; details: read-out: Therapeutic index
[4] = test system: Human immunodeficiency virus 1; test: Anti-HIV activity in cell culture assay expressed as IC50 values.; assay type: functional, organism-based
[5] = target: Human immunodeficiency virus type 1 reverse transcriptase (Human immunodeficiency virus 1) (UniProt Q72547); test: Inhibition against HIV- reverse transcriptase in cell culture at 20 ug/mL

Compound	inhibition at 20 µg/mL [1]	EC50 [2]	selectivity ratio [3]	IC50 ([4]; Human immunodeficiency virus 1)	inhibition [5]	IC50 [4]
O=C(OC[C@H]1O[C@@H](OC(=O)c2cc(O)c(O)c(O)c2)[C@H](OC(=O)c2cc(O)c(O)c(O)c2)[C@@H](O)[C@@H]1O)c1cc(O)c(O)c(O)c1	20%	50 µM	0.4	19 µM	16%	
O=C(O[C@@H]1[C@@H](c2c(O)cc(O)c3c2O[C@H](c2ccc(O)c(O)c2)[C@H](OC(=O)c2cc(O)c(O)c(O)c2)C3)c2c(O)cc(O)cc2O[C@@H]1c1ccc(O)c(O)c1)c1cc(O)c(O)c(O)c1	90%	14 µM		> 25 µM	0%	
O=C1OCC2OC(=O)c3cc(O)c(O)c(O)c3-c3c(O)c(O)c(O)c4c3C(=O)OC(C2OC(=O)c2cc(O)c(O)c(O)c2-c2c1cc(O)c(O)c2O)C1OC(=O)c2c-4c(O)c(O)c(O)c2[C@H]1O (stereo partly specified)	90%	16 µM	0.9	15 µM	45%	
O=C1OCC2OC(=O)c3cc(O)c(O)c(O)c3-c3c(O)c(O)c(O)c4c3C(=O)OC(C2OC(=O)c2cc(O)c(O)c(O)c2-c2c1cc(O)c(O)c2O)C1OC(=O)C2C4=C(O)C(=O)C23Oc2cc(O)c4c(c2[C@H]13)O[C@H](c1ccc(O)c(O)c1)[C@@H](O)C4 (stereo partly specified)	89%	4 µM	3.8	15 µM	23%	
O=C1OCC2OC(=O)c3cc(O)c(O)c(O)c3-c3c(O)c(O)c(O)c4c3C(=O)OC(C2OC(=O)c2cc(O)c(O)c(O)c2-c2c1cc(O)c(O)c2O)C1OC(=O)c2c-4c(O)c(O)c(O)c2[C@@H]1O (stereo partly specified)	90%	15 µM	1	15 µM	40%	
O=C(O[C@@H]1O[C@H]2COC(=O)c3cc(O)c(O)c(O)c3-c3c(O)c(O)c(O)c(Oc4cc(C(=O)O[C@H]5O[C@H]6COC(=O)c7cc(O)c(O)c(O)c7-c7c(cc(O)c(O)c7O)C(=O)O[C@H]6[C@@H]6OC(=O)c7cc(O)c(O)c(O)c7-c7c(cc(O)c(O)c7O)C(=O)O[C@H]56)cc(O)c4O)c3C(=O)O[C@H]2[C@@H]2OC(=O)c3cc(O)c(O)c(O)c3-c3c(cc(O)c(O)c3O)C(=O)O[C@H]12)c1cc(O)c(O)c(O)c1	38%	15 µM	1.4	21 µM	34%	
O=C(O)C1=C[C@@H](O)[C@@H](O)[C@H](OC(=O)c2cc(O)c(O)c(O)c2)C1	90%	18 µM	1.4	25 µM	0%	
O=C(OC[C@H]1O[C@@H](OC(=O)c2cc(O)c(O)c(O)c2)[C@H](OC(=O)c2cc(O)c(O)c(O)c2)[C@@H](OC(=O)c2cc(O)c(O)c(O)c2)[C@@H]1OC(=O)c1cc(O)c(O)c(O)c1)c1cc(O)c(O)c(O)c1 (stereo in doubt; 11)					0%	
O=C(O[C@@H]1O[C@@H]2COC(=O)c3cc(O)c(O)c(O)c3-c3c(cc(O)c(O)c3O)C(=O)O[C@H]([C@H]1O)[C@@H]2O)c1cc(O)c(O)c(O)c1 [CORILAGIN]	90%	15 µM	1	15 µM	57%	
Oc1cc(O)c2c(c1)O[C@@]1(c3ccc(O)c(O)c3)Oc3cc(O)c4c(c3[C@@H]2[C@H]1O)O[C@H](c1ccc(O)c(O)c1)[C@H](O)[C@H]4c1c(O)cc(O)c2c1O[C@H](c1ccc(O)c(O)c1)[C@H](O)C2 [CINNAMTANNIN B1]	90%	21 µM	> 1.2	> 25 µM	13%	
O=C(O[C@@H]1O[C@@H]2COC(=O)c3cc(O)c(O)c(O)c3-c3c(cc(O)c(O)c3O)C(=O)O[C@H]([C@H]1OC(=O)c1cc(O)c(O)c(O)c1)[C@@H]2OC(=O)c1cc(O)c(O)c(O)c1)c1cc(O)c(O)c(O)c1 [PUNICAFOLIN]	60%	19 µM	1.8	34 µM	0%	
O=C1OCC2OC(=O)c3cc(O)c(O)c(O)c3-c3c(O)c(O)c(O)c4c3C(=O)OC(C2OC(=O)c2cc(O)c(O)c(O)c2-c2c1cc(O)c(O)c2O)C1OC(=O)c2c-4c(O)c(O)c(O)c2[C@@H]1[C@@]1(O)O[C@@H](CO)[C@@H](O)[C@H]1O (stereo partly specified)	35%	35 µM	0.4	15 µM	27%	
Oc1cc(O)c2c(c1)O[C@H](c1ccc(O)c(O)c1)[C@H](O)[C@H]2c1c(O)cc(O)c2c1O[C@H](c1ccc(O)c(O)c1)[C@H](O)C2 [PROCYANIDIN B2]	40%	> 25 µM		> 25 µM	21%	
CC1(C)CC[C@]2(C(=O)O[C@@H]3O[C@H](CO)[C@@H](O)[C@H](O)[C@H]3O)CC[C@]3(C)C(=CCC4[C@@]5(C)C[C@@H](O)[C@@H]6OC(=O)c7cc(O)c(O)c(O)c7-c7c(cc(O)c(O)c7O)C(=O)OC[C@@]6(CO)C5CC[C@]43C)C2C1 (stereo partly specified)	47%	18 µM	1.6	28 µM	17%	
O=C(O)C1=C[C@@H](O)[C@@H](O)[C@H](OC(=O)c2cc(O)c(O)c(OC(=O)c3cc(O)c(O)c(O)c3)c2)C1	60%	30 µM	1.3	40 µM	31%	
O=C(OC[C@@H]1O[C@@H](OC(=O)c2cc(O)c(O)c(O)c2)[C@@H](OC(=O)c2cc(O)c(O)c(O)c2)[C@@H](OC(=O)c2cc(O)c(O)c(O)c2)[C@@H]1OC(=O)c1cc(O)c(O)c(O)c1Oc1cc2c(c(O)c1O)-c1c(cc(O)c(O)c1O)C(=O)OC[C@@H]1O[C@@H](OC(=O)c3cc(O)c(O)c(O)c3)[C@@H](OC(=O)c3cc(O)c(O)c(O)c3)[C@@H](OC(=O)c3cc(O)c(O)c(O)c3)[C@@H]1OC2=O)c1cc(O)c(O)c(O)c1	50%	12 µM	3.3	39 µM	0%	
Oc1cc(O)c2c(c1)O[C@H](c1ccc(O)c(O)c1)[C@H](O)[C@H]2c1c(O)cc(O)c2c1O[C@H](c1ccc(O)c(O)c1)[C@H](O)[C@H]2c1c(O)cc(O)c2c1O[C@H](c1ccc(O)c(O)c1)[C@H](O)C2 [PROCYANIDIN C1]	68%	> 25 µM	> 1	> 25 µM	18%	
O=C(O[C@@H]1Cc2c(O)cc(O)cc2O[C@@H]1c1ccc(O)c(O)c1)c1cc(O)c(O)c(O)c1 [EPICATECHIN GALLATE]	40%	> 25 µM		> 25 µM	5%	
Oc1cc(O)c2c(c1)O[C@H](c1ccc(O)c(O)c1)[C@H](O)[C@H]2c1c(O)cc(O)c2c1O[C@@]1(c3ccc(O)c(O)c3)Oc3cc(O)c4c(c3[C@@H]2[C@H]1O)O[C@H](c1ccc(O)c(O)c1)[C@H](O)[C@H]4c1c(O)cc(O)c2c1O[C@H](c1ccc(O)c(O)c1)[C@H](O)C2 [CINNAMTANNIN B2]	73%	15 µM	> 1.7	> 25 µM	19%	
O=C1c2c(O)cc(O)cc2O[C@H](c2ccc(O)c(O)c2)[C@H]1O [(+)-TAXIFOLIN]	40%	45 µM	1	45 µM	22%	
O=C(OC[C@H]1OC(O)[C@@](O)(COC(=O)c2cc(O)c(O)c(O)c2)[C@@H]1OC(=O)c1cc(O)c(O)c(O)c1)c1cc(O)c(O)c(O)c1 (stereo partly specified)	30%	45 µM	0.9	40 µM	25%	
O=C(OC[C@H]1O[C@@H](OC(=O)c2cc(O)c(O)c(O)c2)[C@H](OC(=O)c2cc(O)c(O)c(O)c2)[C@@H](OC(=O)c2cc(O)c(O)c(O)c2)[C@@H]1OC(=O)c1cc(O)c(O)c(O)c1)c1cc(O)c(O)c(O)c1 (stereo in doubt; 11) [PENTAGALLOYL GLUCOSE]	65%	18 µM	2.5			45 µM
O=C(/C=C/c1ccc(O)c2c1[C@H](C(=O)O[C@H](Cc1ccc(O)c(O)c1)C(=O)O)[C@@H](c1ccc(O)c(O)c1)O2)O[C@H](Cc1ccc(O)c(O)c1)C(=O)O [MAGNESIUM LITHOSPERMATE B]	35%	> 25 µM		> 25 µM	18%	
O=C1O[C@H]2[C@H](OC(=O)c3cc(O)c(O)c(O)c3)[C@@H](OC(=O)c3cc(O)c(O)c4c3[C@@H]3C1=CC(=O)C(O)(O)C3(O)O4)[C@H](OC(=O)c1cc(O)c(O)c(O)c1)O[C@@H]2COC(=O)c1cc(O)c(O)c(O)c1 (stereo partly specified) [TERCHEBIN]	50%	21 µM	1.9	40 µM	13%	
Oc1cc(O)c2c(c1)O[C@@]1(c3ccc(O)c(O)c3)Oc3cc(O)c4c(c3[C@@H]2[C@H]1O)O[C@H](c1ccc(O)c(O)c1)[C@H](O)C4 [PROANTHOCYANIDIN A2]	30%	> 25 µM		> 25 µM	18%	
O=C(OC[C@H]1O[C@@H](OC(=O)c2cc(O)c(O)c(O)c2)[C@H](OC(=O)c2cc(O)c(O)c(O)c2)[C@@H](OC(=O)c2cc(O)c(O)c(O)c2)[C@@H]1OC(=O)c1cc(O)c(O)c(O)c1)c1cc(O)c(O)c(O)c1 (stereo in doubt; 10)					2%	
O=C1O[C@H]2[C@@H]3OC(=O)c4cc(O)c(O)c(O)c4-c4c(cc(O)c(O)c4O)C(=O)OC[C@H]2O[C@@H](OC(=O)c2cc(O)c(O)c(O)c2)[C@@H]3OC(=O)c2cc(O)c(O)c3c2[C@@H]2C1=CC(=O)C(O)(O)C2(O)O3 (stereo partly specified)	92%	12 µM	1.2	14 µM	15%	
O=C1O[C@H]2[C@H](O)[C@@H](OC(=O)c3cc(O)c(O)c4c3[C@@H]3C1=CC(=O)C(O)(O)C3(O)O4)[C@H](OC(=O)c1cc(O)c(O)c(O)c1)O[C@@H]2CO (stereo partly specified) [FUROSIN]	33%	50 µM	1.4	70 µM	38%	
